Test results: US20250059174A1, “Pharmaceutical Compounds and Compositions as C-Kit Kinase Inhibitors” (Enanta Pharmaceuticals, Inc., priority 2023, published 2025)

How the values were obtained:
[1] = target: Recombinant human c-KIT kinase (Homo sapiens (Human), UniProt P10721); assay: c-KIT kinase chemiluminescence assay (ADP-Glo); assay type: biochemical; details: ATP 50 μM
How it was run: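 Recombinant human c-KIT preincubated 30 min at RT in 40 mM Tris pH 7.5, 20 mM MgCl2, 0.1 mg/mL BSA, 50 μM DTT, then reacted 2 h at RT with ATP and polyEY substrate. ADP-Glo luminescence readout; activity normalized to high/low controls, IC50 and Hill coefficient from inhibitor-versus-normalized-response fit.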

M-07e cells = assay: M-07e cellular assay (SCF-mediated cell proliferation); assay type: cell-based; details: Homo sapiens, 72 hours, CellTiter Glo
How it was run: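 Readout came from CellTiter Glo after 72 h of compound treatment in SCF (EC90)-stimulated, pre-starved M-07e cells at 37 °C.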

Recombinant human c-KIT kinase, sequence (P10721 26-976): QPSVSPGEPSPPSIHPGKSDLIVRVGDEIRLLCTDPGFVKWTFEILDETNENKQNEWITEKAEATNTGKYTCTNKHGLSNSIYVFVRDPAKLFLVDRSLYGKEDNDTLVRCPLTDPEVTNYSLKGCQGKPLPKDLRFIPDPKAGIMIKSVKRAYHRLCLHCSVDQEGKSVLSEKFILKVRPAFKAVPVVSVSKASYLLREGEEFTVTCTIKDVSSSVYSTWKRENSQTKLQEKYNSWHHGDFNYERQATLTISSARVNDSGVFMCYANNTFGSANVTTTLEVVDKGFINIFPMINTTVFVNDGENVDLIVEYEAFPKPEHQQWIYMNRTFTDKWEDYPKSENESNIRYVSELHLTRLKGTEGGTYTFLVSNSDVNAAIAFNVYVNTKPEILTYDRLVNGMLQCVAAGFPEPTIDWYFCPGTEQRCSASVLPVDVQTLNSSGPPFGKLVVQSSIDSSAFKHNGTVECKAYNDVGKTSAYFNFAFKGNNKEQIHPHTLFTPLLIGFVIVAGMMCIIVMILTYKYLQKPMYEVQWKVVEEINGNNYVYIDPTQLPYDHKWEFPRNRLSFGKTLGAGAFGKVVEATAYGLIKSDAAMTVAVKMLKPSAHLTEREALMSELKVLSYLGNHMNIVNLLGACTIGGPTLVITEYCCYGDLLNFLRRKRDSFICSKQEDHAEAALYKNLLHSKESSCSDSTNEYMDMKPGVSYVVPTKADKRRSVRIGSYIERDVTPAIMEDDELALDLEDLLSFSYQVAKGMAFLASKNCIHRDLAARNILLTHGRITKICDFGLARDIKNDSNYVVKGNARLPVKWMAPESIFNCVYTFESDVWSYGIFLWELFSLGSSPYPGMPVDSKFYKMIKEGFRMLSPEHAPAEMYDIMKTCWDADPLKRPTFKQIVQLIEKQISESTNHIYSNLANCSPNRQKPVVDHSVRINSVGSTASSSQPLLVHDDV

Row | Compound | IC50 [1] | EC50 (M-07e cells)
1 | Cc1ccc(-c2noc([C@]3(C)C[C@H](OC(F)F)C3)n2)cc1NC(=O)c1cnn2ccc(N3CC4(COC4)C3)cc12 [Example 281] | < 100 nM | < 100 nM
2 | COc1cccc(-c2ncc(C(=O)Nc3cc(-c4noc([C@H]5C[C@@H]5F)n4)ccc3C)o2)c1 [Example 283] | 100 to 1000 nM | < 100 nM
3 | COc1ccccc1-c1ncc(C(=O)Nc2cc(-c3noc([C@H]4C[C@@H]4F)n3)ccc2C)o1 [Example 284] | > 1000 nM | > 1000 nM
4 | Cc1ccc(-c2noc([C@H]3C[C@@H]3F)n2)cc1NC(=O)c1cnc(-c2cccnc2)o1 [Example 285] | > 1000 nM | > 1000 nM
5 | Cc1ccc(-c2noc([C@H]3C[C@@H]3F)n2)cc1NC(=O)c1cnc(-c2ccncc2)o1 [Example 286] | > 1000 nM | 100 to 1000 nM
6 | Cc1ccc(-c2noc([C@H]3C[C@@H]3F)n2)cc1NC(=O)c1cnc(-c2ccc(N)nc2)o1 [Example 287] | 100 to 1000 nM | 100 to 1000 nM
7 | Cc1ccc(-c2noc([C@H]3C[C@@H]3F)n2)cc1NC(=O)c1cnc(-c2cccc(N3CC4(COC4)C3)c2)o1 [Example 288] | 100 to 1000 nM | 100 to 1000 nM
8 | Cc1ccc(-c2noc([C@H]3C[C@@H]3F)n2)cc1NC(=O)c1cnc(-c2ccccc2N2CC3(COC3)C2)o1 [Example 289] | > 1000 nM | > 1000 nM
9 | Cc1ccc(-c2noc([C@H]3C[C@@H]3F)n2)cc1NC(=O)c1cnc(-c2ccnc(N)c2)o1 [Example 290] | 100 to 1000 nM | 100 to 1000 nM
10 | Cc1ccc(-c2noc([C@H]3C[C@@H]3F)n2)cc1NC(=O)c1cnc(-c2ccnc(NC(=O)OC(C)(C)C)c2)o1 [Example 291] | > 1000 nM | > 1000 nM
11 | Cc1ccc(-c2noc([C@H]3C[C@@H]3F)n2)cc1NC(=O)c1cnc(-c2ccc3[nH]ncc3c2)o1 [Example 292] | < 100 nM | < 100 nM

Second part, led by results:

Row | IC50 [1] | Compound | EC50 (M-07e cells)
12 | 100 to 1000 nM | O=C(Nc1cc(-c2noc(N3CC(F)(F)C3)n2)ccc1Cl)c1cnn2ccc(N3CC4(COC4)C3)cc12 [Example 281-124] | < 100 nM
13 | < 100 nM | O=C(Nc1cc(-c2noc(N3CC(O)(C(F)(F)F)C3)n2)ccc1Cl)c1cnn2ccc(N3CC4(C3)CC(O)(C(F)F)C4)cc12 [Example 281-125] | < 100 nM
14 | > 1000 nM | Cc1sc(-c2noc(C3CN(C(=O)[C@H]4C[C@@H]4F)C3)n2)cc1NC(=O)c1cnn2ccc(N3CC4(COC4)C3)cc12 [Example 281-126] | > 1000 nM
15 | 100 to 1000 nM | Cc1sc(-c2noc(C3CN(C(=O)[C@H]4C[C@@H]4F)C3)n2)cc1NC(=O)c1cnn2ccc(N3CC4(C3)CC(O)(C(F)F)C4)cc12 [Example 281-127] | > 1000 nM
16 | 100 to 1000 nM | Cc1sc(-c2noc(C3CN(C(=O)C4(F)CC4)C3)n2)cc1NC(=O)c1cnn2ccc(N3CC4(COC4)C3)cc12 [Example 281-128] | 100 to 1000 nM
17 | 100 to 1000 nM | Cc1sc(-c2noc(C3CN(C(=O)C4(F)CC4)C3)n2)cc1NC(=O)c1cnn2ccc(N3CC4(C3)CC(O)(C(F)F)C4)cc12 [Example 281-129] | 100 to 1000 nM
18 | 100 to 1000 nM | Cc1ncc(-c2noc(C3CN(CC(F)F)C3)n2)cc1NC(=O)c1cnn2ccc(N3CC4(C3)CC(O)(C(F)F)C4)cc12 [Example 281-130] | 100 to 1000 nM
19 | < 100 nM | COC(=O)N1CCC(c2nc(-c3ccc(C)c(NC(=O)c4cnn5ccc(N6CC7(COC7)C6)cc45)c3)no2)C1 (centres unmarked) [Example 281-131] | < 100 nM
20 | < 100 nM | COC(=O)N1CCC(c2nc(-c3ccc(C)c(NC(=O)c4cnn5ccc(N6CC7(COC7)C6)cc45)c3)no2)CC1 [Example 281-132] | < 100 nM
21 | 100 to 1000 nM | COC(=O)N1CC2(CC(c3nc(-c4ccc(C)c(NC(=O)c5cnn6ccc(N7CC8(COC8)C7)cc56)c4)no3)C2)C1 [Example 281-133] | 100 to 1000 nM
22 | < 100 nM | COC(=O)N1CCC(c2nc(-c3ccc(C)c(NC(=O)c4cnn5ccc(N6CC7(C6)CC(O)(C(F)F)C7)cc45)c3)no2)CC1 [Example 281-134] | < 100 nM
